The experiment addresses T1, fatty acid amide hydrolase (FAAH) (Homo sapiens, UniProt O00519).
T1 sequence (O00519 1-579): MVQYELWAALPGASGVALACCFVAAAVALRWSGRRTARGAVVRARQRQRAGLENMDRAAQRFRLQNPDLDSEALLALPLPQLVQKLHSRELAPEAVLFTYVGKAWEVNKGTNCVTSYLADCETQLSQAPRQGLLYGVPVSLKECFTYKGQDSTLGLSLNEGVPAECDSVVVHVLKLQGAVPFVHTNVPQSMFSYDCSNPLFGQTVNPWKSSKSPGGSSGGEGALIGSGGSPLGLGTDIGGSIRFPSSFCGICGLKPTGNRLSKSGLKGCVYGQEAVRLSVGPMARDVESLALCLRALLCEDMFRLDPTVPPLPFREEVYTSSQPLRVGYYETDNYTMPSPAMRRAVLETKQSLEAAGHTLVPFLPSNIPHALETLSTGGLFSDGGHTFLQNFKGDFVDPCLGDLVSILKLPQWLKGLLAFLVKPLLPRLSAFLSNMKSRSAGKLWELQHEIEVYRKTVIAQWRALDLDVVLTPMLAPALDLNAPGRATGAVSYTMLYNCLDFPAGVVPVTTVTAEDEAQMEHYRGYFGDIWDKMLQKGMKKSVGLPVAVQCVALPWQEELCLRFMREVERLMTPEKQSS
The experiment can be described thus: biochemical.

Data on four compounds can be found in paper PMC9418665, “Fatty acid amide hydrolase inhibition and N‐arachidonoylethanolamine modulation by isoflavonoids: A novel target for upcoming antidepressants” (Pharmacology Research & Perspectives, 2022).

Read-outs that look alike come from different tables or passages of the source.

Regarding `CCCCC/C=C\C/C=C\C/C=C\C/C=C\CCCC(=O)NCCc1c[nH]c2ccc(O)cc12` [arch-5HT], the 50% inhibitory concentration (IC50) (as a rule, the concentration at which inhibition is half-maximal) came out at 1040 ± 130 nM. With `COc1ccc(-c2coc3cc(O)cc(O)c3c2=O)cc1` [biochanin-A], for the setting “read-out: IC50”, the 50% inhibitory concentration (IC50) was 2100 ± 240 nM. The compound `O=c1cc(-c2ccccc2)oc2cc(O)ccc12` [7-hydroxyflavone] returned an IC50 of 2040 ± 190 nM. Regarding `O=c1c(-c2ccc(O)cc2)coc2cc(O)cc(O)c12` [genistein], the IC50 (read-out: IC50) was found to be 1300 ± 130 nM.
